Consider 9 molecules from ChEMBL document CHEMBL1128956, “Irreversible inhibitions of serine proteases by peptidyl allylic halide derivatives” (Bioorg Med Chem Lett, 1996).

Assay [1] addresses T1, Chymotrypsin-like elastase family member 2A (Sus scrofa) (UniProt P08419).
T1 sequence (whole entry): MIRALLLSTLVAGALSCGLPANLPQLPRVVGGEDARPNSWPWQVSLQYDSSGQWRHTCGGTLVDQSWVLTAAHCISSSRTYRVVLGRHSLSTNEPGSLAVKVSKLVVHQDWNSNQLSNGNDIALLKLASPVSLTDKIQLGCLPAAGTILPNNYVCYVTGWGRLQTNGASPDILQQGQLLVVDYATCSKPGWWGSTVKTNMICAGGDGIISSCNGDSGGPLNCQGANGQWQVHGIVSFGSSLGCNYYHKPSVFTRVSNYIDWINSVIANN
Briefly: Compound was tested for inhibitory activity toward porcine pancreatic elastase.

For assay [2], the target named is T1, Chymotrypsin-like elastase family member 2A (Sus scrofa). Kind of assay: Compound was tested for inhibitory activity toward porcine pancreatic elastase expressed as second order rate constant values: No inactivation.
In assay [3] the target is Chymotrypsinogen A (Bos taurus) (UniProt P00766). Briefly: Compound was tested for inhibitory activity towards alpha-chymotrypsin expressed as second order rate constant values.
Assay [4] has the same target. Kind of assay: Compound was tested for inhibitory activity against alpha-chymotrypsin.
Assay [5] shares this target. Kind of assay: Compound was tested for inhibitory activity towards alpha-chymotrypsin expressed as second order rate constant values.
The target is the same in assay [6]. Kind of assay: Compound was tested for inhibitory activity against alpha-chymotrypsin.
The target is the same in assay [7]. Briefly: Compound was tested for inhibitory activity towards alpha-chymotrypsin expressed as second order rate constant values; No inactivation.

Structures are written as SMILES.

For the molecule `O=C(CNC(=O)OCc1ccccc1)NCC(=O)N[C@H](/C=C/CBr)Cc1ccccc1`, the Concentration came out at 15 µM in assay [1] and 7 µM in assay [4]. Moreover, the results for the “k obs / concentration” value in assay [2] and in assay [3] were “No inactivation” and 1240 M⁻¹ s⁻¹, respectively.
In assay [5], `CC(=O)N[C@H](/C=C/CCl)Cc1ccccc1` gave a k obs / concentration of 0.8 M⁻¹ s⁻¹. This molecule returned a Concentration in assay [6] of 0.476 mM.
Consider `O=C(CNC(=O)OCc1ccccc1)N[C@H](/C=C/CF)Cc1ccccc1`, for which the “k obs / concentration” value in assay [7] was “No inactivation”. In addition, the Concentration in assay [6] came out at 1.05 mM.
Regarding `O=C(CNC(=O)OCc1ccccc1)N[C@H](/C=C/CCl)Cc1ccccc1`, the Concentration is 600 µM in assay [1] and 28 µM in assay [4]. Besides, the results for the “k obs / concentration” value in assay [2] and in assay [3] were “No inactivation” and 12 M⁻¹ s⁻¹, respectively.
On to `CC(=O)N[C@H](/C=C/CF)Cc1ccccc1`, for which the “k obs / concentration” value in assay [7] was “No inactivation”. The same molecule yielded a Concentration in assay [6] of 13.5 mM.
Turning to `CC(=O)N[C@H](/C=C/CBr)Cc1ccccc1`, the Concentration in assay [1] and in assay [4] was 101 µM throughout. In addition, the “k obs / concentration” value in assay [2] is “No inactivation”; in assay [3] it was 14 M⁻¹ s⁻¹.
Regarding `O=C(CNC(=O)OCc1ccccc1)NCC(=O)N[C@H](/C=C/CCl)Cc1ccccc1`, the results for the Concentration in assay [1] and in assay [4] were 97 µM and 17 µM, respectively. In addition, the “k obs / concentration” value in assay [2] is “No inactivation”; in assay [3], 61 M⁻¹ s⁻¹.
Take `O=C(CNC(=O)OCc1ccccc1)NCC(=O)N[C@H](/C=C/CF)Cc1ccccc1`: the “k obs / concentration” value in assay [7] is “No inactivation”. The molecule further had a Concentration in assay [6] of 4.4 mM.
Consider `O=C(CNC(=O)OCc1ccccc1)N[C@H](/C=C/CBr)Cc1ccccc1`, for which the Concentration in assay [1] and in assay [4] was 25 µM throughout. Also, the “k obs / concentration” value in assay [2] is “No inactivation”; in assay [3] it was 215 M⁻¹ s⁻¹.
